28 compounds from US11053213B2, “Pharmaceutical compounds” (ALMAC DISCOVERY LIMITED, priority 2016, dated 2021) can be followed below.

The assay addresses USP19 (Homo sapiens (Human), UniProt O94966). Nature of the assay: USP19 activity assay (fluorescence polarisation, Ubiquitin-Lys-TAMRA substrate). The assay is classed as biochemical. As to conditions: full-length USP19 2.5 nM, 30 min pre-incubation, Ub substrate 500 nM; average of at least two duplicate experiments.

Bounds are passed on as bounds.

USP19, sequence (O94966 whole entry): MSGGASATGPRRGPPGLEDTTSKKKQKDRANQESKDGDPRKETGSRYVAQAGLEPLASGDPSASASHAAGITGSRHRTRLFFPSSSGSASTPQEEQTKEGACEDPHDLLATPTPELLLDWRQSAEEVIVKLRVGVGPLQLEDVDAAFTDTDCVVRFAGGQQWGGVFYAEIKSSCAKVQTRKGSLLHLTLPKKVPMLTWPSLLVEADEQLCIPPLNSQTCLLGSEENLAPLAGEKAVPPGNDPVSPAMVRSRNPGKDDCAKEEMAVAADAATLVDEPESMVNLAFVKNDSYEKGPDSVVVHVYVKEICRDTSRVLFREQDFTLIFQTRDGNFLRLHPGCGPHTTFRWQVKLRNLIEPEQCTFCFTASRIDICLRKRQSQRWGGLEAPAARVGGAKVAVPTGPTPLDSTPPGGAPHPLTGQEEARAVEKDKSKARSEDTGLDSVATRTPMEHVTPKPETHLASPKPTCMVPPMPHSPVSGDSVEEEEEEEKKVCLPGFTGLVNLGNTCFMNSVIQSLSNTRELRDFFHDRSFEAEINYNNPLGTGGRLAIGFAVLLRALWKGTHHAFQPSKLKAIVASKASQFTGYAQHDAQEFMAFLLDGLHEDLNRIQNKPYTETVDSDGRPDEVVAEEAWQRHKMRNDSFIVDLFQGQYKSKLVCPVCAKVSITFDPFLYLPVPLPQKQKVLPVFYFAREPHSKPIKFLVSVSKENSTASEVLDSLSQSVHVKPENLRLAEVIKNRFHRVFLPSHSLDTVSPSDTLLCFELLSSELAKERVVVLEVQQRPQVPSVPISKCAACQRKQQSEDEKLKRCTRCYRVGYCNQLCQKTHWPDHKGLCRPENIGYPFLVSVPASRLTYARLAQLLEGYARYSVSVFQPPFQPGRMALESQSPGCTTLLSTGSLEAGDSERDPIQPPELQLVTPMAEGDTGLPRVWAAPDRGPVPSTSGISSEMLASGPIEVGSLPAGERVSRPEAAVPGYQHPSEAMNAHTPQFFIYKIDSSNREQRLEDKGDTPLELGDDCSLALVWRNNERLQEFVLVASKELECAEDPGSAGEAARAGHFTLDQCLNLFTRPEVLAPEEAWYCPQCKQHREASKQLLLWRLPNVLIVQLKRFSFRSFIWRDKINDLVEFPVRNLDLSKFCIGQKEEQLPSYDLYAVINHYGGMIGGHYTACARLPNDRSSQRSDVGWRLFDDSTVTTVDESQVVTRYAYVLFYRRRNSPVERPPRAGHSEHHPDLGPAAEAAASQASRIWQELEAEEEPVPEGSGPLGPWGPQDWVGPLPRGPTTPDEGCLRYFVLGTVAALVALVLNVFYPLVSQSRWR

`Cc1cccc(-c2cc(=O)n(CC3(O)CCN(C(=O)C[C@@H](C)c4ccccc4)CC3)cc2C(=O)N(C)C(C)C)c1` [Example 102, (R)-1-((4-Hydroxy-1-(3-phenylbutanoyl)piperidin-4-yl)methyl)-N-isopropyl-N-methyl-6-oxo-4-(m-tolyl)-1,6-dihydropyridine-3-carboxamide]: the IC50 (usually the concentration that gives 50% inhibition) fell in the range of 0.5 to 5 µM.

For the compound `CC(C)CC(C)C(=O)N1CCC(O)(Cn2cc(C(=O)N(C)C)c(-c3ccccc3)cc2=O)C2(CCCC2)C1` (stereo not shown) [Example 197], the IC50 was less than 0.5 µM.

On to `C[C@H](CC(=O)N1CCC(O)(Cn2cnc(-c3ccccc3OC(F)(F)F)cc2=O)CC1)c1ccccc1` [Example 30, (R)-3-((4-Hydroxy-1-(3-phenylbutanoyl)piperidin-4-yl)methyl)-6-(2-(trifluoromethoxy)phenyl)pyrimidin-4(3H)-one], for which the 50% inhibitory concentration (IC50) fell in the range of 50 to 250 µM.

On to `C[C@H](CC(=O)N1CCC(O)(Cn2cnc(-c3ccccc3CO)cc2=O)CC1)c1ccccc1` [Example 74, (R)-3-((4-Hydroxy-1-(3-phenylbutanoyl)piperidin-4-yl)methyl)-6-(2-(hydroxymethyl)phenyl)pyrimidin-4(3H)-one], for which the concentration for half-maximal inhibition (IC50) fell in the range of 50 to 250 µM.

On to `CON(C)C(=O)c1cn(CC2(O)CCN(C(=O)C[C@@H](C)c3ccccc3)CC2)c(=O)cc1-c1ccccc1` [Example 97, (R)-1-((4-Hydroxy-1-(3-phenylbutanoyl)piperidin-4-yl)methyl)-N-methoxy-N-methyl-6-oxo-4-phenyl-1,6-dihydropyridine-3-carboxamide], for which the IC50 was 5 to 50 µM.

`C[C@H](CC1CCCCC1)C(=O)N1CC[C@@](O)(Cn2cc(C(=O)N(C)C)c(-c3ccccc3)cc2=O)C(C)(C)C1` [Example 121, 1-(((S)-1-((R)-3-Cyclohexyl-2-methylpropanoyl)-4-hydroxy-3,3-dimethylpiperidin-4-yl)methyl)-N,N-dimethyl-6-oxo-4-phenyl-1,6-dihydropyridine-3-carboxamide]: the IC50 is less than 0.5 µM.

`CN(C)C(=O)c1cn(CC2(O)CCN(C(=O)C34CC(C3)C4)CC23CCCC3)c(=O)cc1-c1ccccc1` (stereo not shown) [Example 191, 1-((7-(Bicyclo[1.1.1]pentane-1-carbonyl)-10-hydroxy-7-azaspiro[4.5]decan-10-yl)methyl)-N,N-dimethyl-6-oxo-4-phenyl-1,6-dihydropyridine-3-carboxamide]: the IC50 is 50 to 250 µM.

In the case of `C[C@H](CC1CCCCC1)C(=O)N1CC[C@@](O)(Cn2cc(C(=O)N3CCCC3)c(-c3ccccc3)cc2=O)C(C)(C)C1` [Example 123, 1-(((S)-1-((R)-3-Cyclohexyl-2-methylpropanoyl)-4-hydroxy-3,3-dimethylpiperidin-4-yl)methyl)-4-phenyl-5-(pyrrolidine-1-carbonyl)pyridin-2(1H)-one], the concentration for half-maximal inhibition (IC50) was less than 0.5 µM.

With `CCOC(=O)c1cn(C[C@]2(O)CCN(C(=O)[C@H](C)CC3CCCCC3)CC23CCCC3)c(=O)cc1-c1ccccc1` [Example 252, Ethyl 1-(((S)-7-((R)-3-cyclohexyl-2-methylpropanoyl)-10-hydroxy-7-azaspiro[4.5]decan-10-yl)methyl)-6-oxo-4-phenyl-1,6-dihydropyridine-3-carboxylate], the IC50 is less than 0.5 µM.

For `CN(C)C(=O)c1cn(CC2(O)CCN(C(=O)c3ncoc3C3CC3)CC23CCCC3)c(=O)cc1-c1ccccc1` (stereo not shown) [Example 193, 1-((7-(5-Cyclopropyloxazole-4-carbonyl)-10-hydroxy-7-azaspiro[4.5]decan-10-yl)methyl)-N,N-dimethyl-6-oxo-4-phenyl-1,6-dihydropyridine-3-carboxamide], the IC50 lay in the range of 5 to 50 µM.

Take `C[C@H](CC(=O)N1CCC(O)(Cn2cc(-c3ccc(CN)cc3)c(-c3ccccc3)cc2=O)CC1)c1ccccc1` [Example 86, (R)-5-(4-(Aminomethyl)phenyl)-1-((4-hydroxy-1-(3-phenylbutanoyl)piperidin-4-yl)methyl)-4-phenylpyridin-2(1H)-one]: the 50% inhibitory concentration (IC50) was in the range of 5 to 50 µM.

`C[C@H](CC1CCCCC1)C(=O)N1CCC(O)(Cn2cc(C(=O)N3CCCCC3)c(-c3ccccc3)cc2=O)CC1` [Example 36, (R)-1-((1-(3-Cyclohexyl-2-methylpropanoyl)-4-hydroxypiperidin-4-yl)methyl)-4-phenyl-5-(piperidine-1-carbonyl)pyridin-2(1H)-one]: the IC50 lay in the range of 0.5 to 5 µM.

Turning to `C[C@H](CC1CCCCC1)C(=O)N1CCC(O)(Cn2cnc(-c3ccsc3)cc2=O)C(C)(C)C1` (stereo partly drawn) [Example 135, 3-((1-((R)-3-Cyclohexyl-2-methylpropanoyl)-4-hydroxy-3,3-dimethylpiperidin-4-yl)methyl)-6-(thiophen-3-yl)pyrimidin-4(3H)-one], the IC50 is less than 0.5 µM.

On to `CC(C)N(C)C(=O)c1cn(CC2(O)CCN(C(=O)C[C@@H](C)c3ccccc3)CC2)c(=O)cc1-c1ccccc1C#N` [Example 38, (R)-4-(2-Cyanophenyl)-1-((4-hydroxy-1-(3-phenylbutanoyl)piperidin-4-yl)methyl)-N-isopropyl-N-methyl-6-oxo-1,6-dihydropyridine-3-carboxamide], for which the concentration for half-maximal inhibition (IC50) lay in the range of 50 to 250 µM.

As to `CC(CC1CCCCCC1)C(=O)N1CCC(O)(Cn2cnc(-c3ccccc3F)cc2=O)CC1` (racemic) [Example 58, (R,S)-3-((1-(3-Cycloheptyl-2-methylpropanoyl)-4-hydroxypiperidin-4-yl)methyl)-6-(2-fluorophenyl)pyrimidin-4(3H)-one], the IC50 lay within 5 to 50 µM.

Consider `CN(C)C(=O)c1cn(C[C@]2(O)CCN(C(=O)[C@H](CO)CC3CCC3)CC2(C)C)c(=O)cc1-c1ccccc1` [Example 166, 1-(((S)-1-((S)-3-Cyclobutyl-2-(hydroxymethyl)propanoyl)-4-hydroxy-3,3-dimethylpiperidin-4-yl)methyl)-N,N-dimethyl-6-oxo-4-phenyl-1,6-dihydropyridine-3-carboxamide], for which the IC50 is less than 0.5 µM.

Take `CN(C)C(=O)c1cn(C[C@]2(O)CCN(C(=O)[C@H](CO)CC(F)(F)F)CC23CCCC3)c(=O)cc1-c1ccccc1` [Example 247, 1-(((S)-10-Hydroxy-7-((S)-4,4,4-trifluoro-2-(hydroxymethyl)butanoyl)-7-azaspiro[4.5]decan-10-yl)methyl)-N,N-dimethyl-6-oxo-4-phenyl-1,6-dihydropyridine-3-carboxamide]: the IC50 was less than 0.5 µM.

`O=C([C@@H]1C[C@@H]1c1ccccc1)N1CCC(O)(Cn2cnc(-c3ccccc3F)cc2=O)CC1` (racemic) [Example 41, rac-6-(2-Fluorophenyl)-3-((4-hydroxy-1-(cis-2-phenylcyclopropanecarbonyl)piperidin-4-yl)methyl)pyrimidin-4(3H)-one]: the IC50 was 5 to 50 µM.

As for `CN(C)C(=O)c1cn(CC2(O)CCN(C(=O)c3c[nH]c4ccccc34)CC23CCCC3)c(=O)cc1-c1ccccc1` (stereo not shown) [Example 190, 1-((10-Hydroxy-7-(1H-indole-3-carbonyl)-7-azaspiro[4.5]decan-10-yl)methyl)-N,N-dimethyl-6-oxo-4-phenyl-1,6-dihydropyridine-3-carboxamide], the IC50 was in the range of 50 to 250 µM.

In the case of `C[C@H](CC(=O)N1CCC(O)(Cn2cnc(Oc3ccc(F)cc3)cc2=O)CC1)c1ccccc1` [Example 54], the half-maximal inhibitory concentration (IC50) lay within 50 to 250 µM.

Take `C[C@H](CC1CCCCC1)C(=O)N1CCC(O)(Cn2cc(C(=O)N(C)C)c(-c3cccc(CO)c3)cc2=O)C2(CCCC2)C1` (stereo partly drawn) [Example 156, 1-((7-((R)-3-Cyclohexyl-2-methylpropanoyl)-10-hydroxy-7-azaspiro[4.5]decan-10-yl)methyl)-4-(3-(hydroxymethyl)phenyl)-N,N-dimethyl-6-oxo-1,6-dihydropyridine-3-carboxamide]: the IC50 was less than 0.5 µM.

For `CC(C)N(C)C(=O)c1cn(CC2(O)CCN(C(=O)[C@H](C)CC3CCCCC3)CC2)c(=O)cc1-c1ccccc1` [Example 87, (R)-1-((1-(3-Cyclohexyl-2-methylpropanoyl)-4-hydroxypiperidin-4-yl)methyl)-N-isopropyl-N-methyl-6-oxo-4-phenyl-1,6-dihydropyridine-3-carboxamide], the concentration for half-maximal inhibition (IC50) was 0.5 to 5 µM.

Consider `CC(C)N(C)C(=O)c1cn(CC2(O)CCN(C(=O)C3(C)CCc4ccccc4C3)CC2)c(=O)cc1-c1ccccc1F` (racemic) [Example 14, (R,S)-4-(2-Fluorophenyl)-1-((4-hydroxy-1-(2-methyl-1,2,3,4-tetrahydronaphthalene-2-carbonyl)piperidin-4-yl)methyl)-N-isopropyl-N-methyl-6-oxo-1,6-dihydropyridine-3-carboxamide], for which the IC50 was 0.5 to 5 µM.

Regarding `C[C@H](CC1CCCCC1)C(=O)N1CCC(O)(Cn2cc(C(=O)N3CCNCC3)c(-c3ccccc3)cc2=O)C2(CCCCC2)C1` (stereo partly drawn) [Example 238, 1-((2-((R)-3-Cyclohexyl-2-methylpropanoyl)-5-hydroxy-2-azaspiro[5.5]undecan-5-yl)methyl)-4-phenyl-5-(piperazine-1-carbonyl)pyridin-2(1H)-one], the IC50 was less than 0.5 µM.

As for `CCOC(=O)c1cn(CC2(O)CCN(C(=O)C[C@@H](C)c3ccccc3)CC2)c(=O)cc1-c1ccccc1` [Example 13, (R)-Ethyl 1-((4-hydroxy-1-(3-phenylbutanoyl)piperidin-4-yl)methyl)-6-oxo-4-phenyl-1,6-dihydropyridine-3-carboxylate], the IC50 fell in the range of 50 to 250 µM.

For `C[C@H](CC(=O)N1CCC(O)(Cn2cc(C(=O)N3CCCCC3)c(-c3ccccc3)cc2=O)CC1)c1ccccc1` [Example 88, (R)-1-((4-Hydroxy-1-(3-phenylbutanoyl)piperidin-4-yl)methyl)-4-phenyl-5-(piperidine-1-carbonyl)pyridin-2(1H)-one], the IC50 was 0.5 to 5 µM.

For `C[C@H](CC(=O)N1CCC(O)(Cn2cc(-c3ccccc3)c(N(C)C)cc2=O)CC1)c1ccccc1` [Example 11, (R)-4-(Dimethylamino)-1-((4-hydroxy-1-(3-phenylbutanoyl)piperidin-4-yl)methyl)-5-phenylpyridin-2(1H)-one], the IC50 lay within 50 to 250 µM.

As to `C[C@H](CC(=O)N1CCC(O)(Cn2cc(-c3cncnc3)c(-c3ccccc3)cc2=O)CC1)c1ccccc1` [Example 103, (R)-1-((4-Hydroxy-1-(3-phenylbutanoyl)piperidin-4-yl)methyl)-4-phenyl-5-(pyrimidin-5-yl)pyridin-2(1H)-one], the half-inhibitory concentration (IC50) was 5 to 50 µM.
